From patent US4619925A, “3-Propenyl cephalosporin derivatives” (priority 1985, dated 1986)

Key:
S. aureus Smith = experiment: Protective dose for mice infected with lethal inoculum; type: in vivo; details: 50% survival after five days
Description: The data in Table 2 are results of protective doses (PD50) for mice infected with a lethal inoculum of bacteria. Two different bacteria were employed in the studies, one a Gram-positive organism (S. aureus Smith) and the other a Gram-negative organism (E. coli Juhl). The PD50 is that dose which, when administered to a group of injected mice, results in 50% survival after five days. Normally untreated infected mice die within three days following injection of the lethal inoculum.

[1] = tested on: Gram-positive bacteria, Gram-negative bacteria and fastidious bacteria; experiment: Antibacterial activity (summary statement); type: cell-based

C/C=C\C1=C(C(=O)O)N2C(=O)C(NC(=O)[C@H](N)c3cccc(O)c3)[C@H]2SC1 (stereo partly shown) [BMY-28272, 7-[(D)-2-amino-2-(3-hydroxyphenyl)acetamido]-3-[(Z)-1-propenyl]-3-cephem-4-carboxylic acid]
PD50 (protective dose) (S. aureus Smith; im): 0.29
PD50 (protective dose) (S. aureus Smith; po): 0.17
activity against Gram-positive bacteria [1]: strong activity against Gram-positive bacteria
spectrum of activity against Gram-negative and fastidious bacteria relative to cephalexin and cefaclor [1]: improved spectrum of activity against Gram-negative bacteria and fastidious bacteria relative to cephalexin and cefaclor
